According to patent US6841236B2, “Articles containing thioxanthone dyes” (3M Innovative Properties Co., priority 2001, dated 2005):

How the values were obtained:
[1] = Dye concentration in saturated acetone solution at room temperature; assay type: physicochemical; conditions: 72 hours at RT, 0.45 micron PTFE filtered, absorbance at 535 nm
Experimental: Examples 4-7 were prepared by placing 60-100 mg of each of the compounds of Examples 1-3 and 6-methoxy-14H-anthra(2,1,9-mna)thioxanthene-14-one (described by Carlini et al.) in a vial with 5.0 ml acetone. […] Each vial was hand shaken and the solution was filtered using a 0.45 micron polytetrafluoroethylene (PTFE) filter commercially available from VWR Scientific Products, West Chester, Pa. under the trade designation “Acrodisc 13CR PTFE”.
The amount of fluorescent dye in the saturated acetone solution was determined by measuring the major dye absorption band at 535 nm using a UV-Vis Spectrophotometer commercially available from Shimadzu Scientific Instruments, Inc., Columbia, Md. under the trade designation “Shimadzu model UV-2401PC”. Dye concentrations were calculated by measuring the absorbance of the saturated acetone solution, and then diluting that solution until absorbance of the resulting solution was below 3. The dyes were assumed to have equal absorbance per mole. Using the dilution and an absorbance coefficient of 16,100 A/mol/L (coefficient obtained in acetone for the dye of Example 3) and assuming a Beer's Law relationship, the concentration of dye in each saturated solution was calculated and is set out in TABLE I

[2] = Daytime color of Paraloid B66 dye coating on retroreflective sheeting; assay type: physicochemical; conditions: for YF (fluorescence luminance factor) / YT (total luminance factor) / x (daytime chromaticity) / y (daytime chromaticity): 0.10 parts dye in 64.8 parts Dowanol DPMA and 38.2 parts Paraloid B66, coated on Scotchlite 3970 with #16 wire wound bar, dried
Experimental: (§1) The daytime color of each article was measured using a Labsphere BFC-450 Bispectral Colorimeter commercially available from Labsphere, North Sutton, N.H. The daytime chromaticity (x,y), total luminance factor (YT), and fluorescence luminance factor (YF; which is a measure of the fluorescent properties of the article) calculated for the CIE D65 and the CIE 1931 observer are provided in TABLE II
Examples 19-21 were prepared by independently stirring 0.10 parts of the dyes of Examples 1 and 3 and 6-methoxy-14H-anthra(2,1,9-mna)thioxanthene-14-one in a clear vehicle solution of 64.8 parts Dowanol DPMA and 38.2 parts Paraloid B66.
The fluorescent dye solutions were coated on Scotchlite 3970 reflective sheeting using a #16 wire wound bar. The coating was air dried for 5 minutes and then dried in a 120° C. oven for 45 minutes. Color values were measured as described in Examples 8-10 and the results set out in TABLE V.

[3] = Daytime color of vinyl film with dye laminated to retroreflective sheeting; assay type: physicochemical; conditions: 0.18 g dye in 65 g GEON 178 / Elvacite 2013 mixture, 0.04 mm vinyl film on Scotchlite 3970
Experimental: as §1
Examples 22-23 were prepared by independently stirring 0.18 g of the dye of Examples 1 and 3 into 65 g of a mixture composed of 42 wt.-% DIBK, xylol, and mineral spirit (1.7:2.3:1), 44 wt.-% of a polyvinyl chloride dispersion commercially available from PolyOne, Cleveland, Ohio under the trade designation “GEON 178” and 14 wt.-% of a polyacrylate commercially available from Ineos Acrylics Inc., Cordova, Tenn. under the trade designation “Elvacite 2013”. Each mixture was allowed to stand at room temperature for one hour prior to knife coating onto a pre-sized paper substrate. Each coated substrate was placed in a 150° F. (66° C.) oven for 1.5 minutes, followed by a 300° F. (149° C.) oven for 1.0 minute and a 400° F. (204° C.) oven for 0.75 minute, resulting in a 0.04 mm thick fluorescent colored vinyl film.
The resultant films were laminated to Scotchlite 3970 reflective sheeting on aluminum panels as described in Examples 8-10. Color values were measured as described in Examples 8-10 and the results set out in TABLE VI.

[4] = Daytime color of polyurethane film with dye laminated to retroreflective sheeting; assay type: physicochemical; conditions: dye 0.2 wt.-% in aliphatic polyester polyurethane PN03.214, 0.1 mm film on Scotchlite 3970
Experimental: as §1
Examples 24-27 were prepared as described in Examples 8-10, except that the dyes of Examples 1, 3, 6-(2-hydroxy-ethoxy)-14H-anthra(2,1,9-mna)thioxanthene-14-one (described by Carlini et al.) and 6-methoxy-14H-anthra(2,1,9-mna)thioxanthene-14-one were independently used at 0.2 wt.-% loading in an aliphatic polyester polyurethane resin commercially available from Huntsman Polyurethanes, West Deptford, N.J., USA under the trade designation “PN03.214”. The extrusion conditions for the polyurethane were 154-191° C. and the resultant film thickness was 0.1 mm.
The resultant films were laminated to Scotchlite 3970 reflective sheeting on aluminum panels as described in Examples 8-10. Color values were measured as described in Examples 8-10 and the results set out in TABLE VII.

[5] = Daytime color of polycarbonate sheet with dye laminated to retroreflective sheeting (Labsphere BFC-450 Bispectral Colorimeter); assay type: physicochemical; conditions: 0.2% dye in polycarbonate FCR-2407, 0.1 mm sheet on Scotchlite 3970; CIE D65, CIE 1931 observer
Experimental: Examples 8-10 were prepared with the compounds of Examples 1 and 2 and 6-methoxy-14H-anthra(2,1,9-mna)thioxanthene-14-one at a 0.2% loading in polycarbonate FCR-2407. Extrusion conditions for the polycarbonate were 260-304° C. using a single screw extruder. Optically transparent pressure sensitive adhesive with a liner on both sides of the adhesive was laminated to the 0.1 mm thick sheet of polycarbonate by removing one of the liners from the adhesive and then applying the exposed adhesive to the polycarbonate sheet with two passes of a roller using hand pressure.
The remaining liner was removed from the adhesive and the polycarbonate sheet construction was laminated to retroreflective sheeting commercially available from 3M under the trade designation “Scotchlite Diamond Grade LDP Reflective Sheeting Series 3970” (Scotchlite 3970) with two passes of a roller using hand pressure. The Scotchlite 3970 reflective sheeting had previously been laminated to a 7 cm wide by 28 cm long aluminum panel (6061T6 alloy with etch and desmut surface from Q Panel Company, Cleveland, Ohio) with two passes of a roller with hand pressure.
as §1

[6] = Daytime color and visual inspection of PMMA film with dye laminated to retroreflective sheeting; assay type: physicochemical; conditions: for visual inspection of film for undissolved dye: extruded PMMA CP923 film 0.1 mm, 6-methoxy dye at 1 wt.-%, dyes of Examples 1-2 at up to 1.27 wt-%
Experimental: as §1
Examples 11-16 were prepared with the compounds of Examples 1-2 and 6-methoxy-14H-anthra(2,1,9-mna)thioxanthene-14-one in polymethylmethacrylate (PMMA) resin at the wt.-% of dye shown in TABLE III. The samples were prepared by dry blending the dye with a medium impact modified grade PMMA resin commercially available from Ineos Acrylics Inc., Cordova, Tenn. under the trade designation “CP923”. Films of 0.1 mm thickness were extruded through a single screw extruder with three heating zones set at 249° C. to 260° C. […] Examples 11 and 12 and Examples 13 and 14 had equal molar loadings of dye.
The resultant films were laminated to Scotchlite 3970 reflective sheeting on aluminum panels as described in Examples 8-10. Color values were measured as described in Examples 8-10 and the results set out in TABLE III.

[7] = Daytime color of copolyester film with dye laminated to retroreflective sheeting; assay type: physicochemical; conditions: dye 0.2 wt.-% in copolyester resin, 0.1 mm film on Scotchlite 3970
Experimental: as §1
Examples 17-18 were prepared as described in Examples 8-10, except that the dyes of Examples 1 and 2 at a 0.2 wt.-% loading were independently incorporated into a copolyester resin. The copolyester resin was prepared using terephthalic and isophthalic acid in an 80/20 ratio and ethylene glycol in the conventional manner and analogous to the production of polyethylene terephthalate according to the method described in Macromolecular Syntheses, A Periodic Publication of Methods for the Preparation of Macromolecules, Collective Volume I, 1977, J. A. Moore, Editor, (John Wiley & Sons, New York; 1978);p. 17-21. The extrusion conditions for the copolyester were 254-260° C. using a single screw extruder and the resultant film thickness was 0.1 mm.
The resultant films were laminated to Scotchlite 3970 reflective sheeting on aluminum panels as described in Examples 8-10. Color values were measured as described in Examples 8-10 and the results set out in TABLE IV.

[8] = dye 0.2 wt-% in PMMA CP923, 0.1 mm film on Scotchlite 3970
[9] = dye 0.3 wt-% in PMMA CP923, 0.1 mm film on Scotchlite 3970
[10] = dye 1.0 wt-% in PMMA CP923, 0.1 mm film on Scotchlite 3970

| Compound | Dye Concentration in Acetone at RT [1] [mg/mL] | YF (fluorescence luminance factor) [2] | YT (total luminance factor) [2] | x (daytime chromaticity) [2] | y (daytime chromaticity) [2] | X (daytime chromaticity) [4] | YF (fluorescence luminance factor) [4] | YT (total luminance factor) [4] | y (daytime chromaticity) [4] | YF (fluorescence luminance factor) [5] | YT (total luminance factor) [5] | x (daytime chromaticity) [5] | y (daytime chromaticity) [5] | visual inspection of film for undissolved dye [6] | further results |
| --- | --- | --- | --- | --- | --- | --- | --- | --- | --- | --- | --- | --- | --- | --- | --- |
| CC(C)CC(CC(C)C)Oc1cc2c3ccccc3c(=O)c3ccc4c5ccccc5sc1c4c32 [Example 3, 6-(1-Isobutyl-3-methylbutoxy)-14H-anthra[2,1,9-mna]thioxanthene-14-one] | 2.98 | 17.05 | 33.17 | 0.4971 | 0.3113 | 0.5970 | 11.62 | 17.66 | 0.2886 | – | – | – | – | – | appearance of coated article ([2]; dye in Paraloid B66 coating on Scotchlite 3970): bright fluorescent pink appearance; Y (daytime chromaticity) [3]: 0.2609; YF (fluorescence luminance factor) [3]: 12.92; YT (total luminance factor) [3]: 24.21; x (daytime chromaticity) [3]: 0.4952 |
| CCCCC(CC)COc1cc2c3ccccc3c(=O)c3ccc4c5ccccc5sc1c4c32 (stereo not shown) [Example 2, 6-[(2-Ethylhexyl)oxy]-14H-anthra[2,1,9-mna]thioxanthene-14-one] | 0.96 | – | – | – | – | – | – | – | – | 16.6 | 32.05 | 0.5336 | 0.2979 | uniform appearance with no undissolved dye seen | X (daytime chromaticity) [6, 8]: 0.6064; YF (fluorescence luminance factor) [6, 8]: 14.69; YT (total luminance factor) [6, 8]: 31.13; y (daytime chromaticity) [6, 8]: 0.3113; YF (fluorescence luminance factor) [7]: 12.77; YT (total luminance factor) [7]: 19.91; x (daytime chromaticity) [7]: 0.5627; y (daytime chromaticity) [7]: 0.2785; melting point: 175 to 177 °C |
| O=c1c2ccccc2c2cc(OCCO)c3sc4ccccc4c4ccc1c2c34 [6-(2-hydroxy-ethoxy)-14H-anthra(2,1,9-mna)thioxanthene-14-one, reference compound] | – | – | – | – | – | 0.6000 | 10.09 | 14.71 | 0.2756 | – | – | – | – | – | – |
| COc1cc2c3ccccc3c(=O)c3ccc4c5ccccc5sc1c4c32 [6-methoxy-14H-anthra(2,1,9-mna)thioxanthene-14-one, reference compound] | 0.06 | 1.12 | 17.05 | 0.3977 | 0.3225 | 0.5989 | 9.69 | 14.81 | 0.2780 | 16.15 | 28.24 | 0.6163 | 0.3025 | particles of dye in the film | X (daytime chromaticity) [6, 9]: 0.6072; YF (fluorescence luminance factor) [6, 9]: 11.64; YT (total luminance factor) [6, 9]: 17.02; y (daytime chromaticity) [6, 9]: 0.3117; X (daytime chromaticity) [6, 10]: 0.5723; YF (fluorescence luminance factor) [6, 10]: 3.67; YT (total luminance factor) [6, 10]: 5.28; y (daytime chromaticity) [6, 10]: 0.3064 |
